Assay results: patent US20210179680A1, “POLYPEPTIDE, DERIVATIVES THEREOF, AND APPLICATION THEREOF IN PREPARATION OF DRUGS HAVING RESISTANCE TO PULMONARY FIBROSIS” (priority 2016, published 2021)
Bridge positions count the residues as written; N and C are the ends. Square brackets hold non-standard residues; d marks the D form. Peptide text beside a SMILES is read from it. S5 = C=CCCC[C@](C)(N)C(=O)O

Experiments:
Type in all cases: in vivo, C57BL/6 mice
[1] = test system: mice with bleomycin-induced pulmonary fibrosis; test: Survival rate of mice with bleomycin-induced pulmonary fibrosis; details: twice a week
Method: (§1) Male C57BL/6 mice were fasted overnight, then anesthetized with 45 mg/kg sodium pentobarbital by injection intraperitoneally (i.p.), and intratracheally injected with bleomycin at a dose of 3 U/kg. The specific operation steps are as follows: cut the neck skin of the mouse with as little trauma as possible, expose the trachea with the assistance of elbow ophthalmic forceps, puncture the trachea and inject about 50 μL of bleomycin into the trachea with a microsyringe, rotate the mouse quickly and stand it upright for 5 minutes in order to make bleomycin evenly enter the left and right lobe, thereby constructing an animal model. The whole operation was performed at a surgical table at about […]. Mice in the sham operation group were intratracheally injected with an equal amount of physiological saline for injection.
The animal model with pulmonary fibrosis was prepared according to the method described in Example 2. The peptide therapy was started from the 10th day after modeling (the treatment groups are shown in Table 3), and the time was calculated from the 10th day after modeling to count the mortality rate. The death situation of each group of experimental animals was counted and calculated daily. […] The survival rate is the percentage of the number of mice that survived accounting for the number of mice in the whole group. Results are shown in FIG. 6-1, FIG. 6-2 and Table 4. […] In FIG. 6-1 and FIG. 6-2, “##” represents that P value is less than 0.01 when the survival rate of administration group was compared with that of the sham operation group; “*” represents that P value is less than 0.05 when the survival rate of administration group was compared with that of the bleomycin group; “**” represents that P value is less than 0.01 when the survival rate of administration group was compared with that of bleomycin group; and “i.p.” refers to intraperitoneal injection.
The animal model of pulmonary fibrosis was prepared according to the method described in Example 2. The polypeptide treatment was started from the 10th day after modeling (the treatment groups are shown in Table 9), and the time was calculated from the 10th day after modeling to count the mortality rate. The mortality rate of each group of experimental animals was recorded and calculated daily. If none of the animals in a group died, the survival rate of the group is 100%. If all the animals in a group died, the survival rate is 0%. […] In FIG. 12, “##” represents that P value is less than 0.01 when the survival rate of the administration groups were compared with that of the sham operation group; “*” represents that P value is less than 0.05 and “**” represents that P value is less than 0.01 when the survival rate of the administration groups were compared with bleomycin group.

[2] = test system: mice with bleomycin-induced pulmonary fibrosis; test: Lung weight index in mice with pulmonary fibrosis; details: 2 mg/kg i.p., after 28 days, lung weight (mg) divided by body weight (g)
Method: as §1
Pulmonary fibrosis model was prepared according to the method described in Example 2, and administered in groups according to Table 3. After 28 days, the lungs of the mice were finely stripped and weighed, and a lung weight index was obtained from dividing the lung weight (mg) by the body weight (g) of the mice. […] In FIG. 7, “##” represents that P value is less than 0.01 when the lung weight index of administration group was compared with that of the sham operation group; “*” represents that P value is less than 0.05 when the lung weight index of administration group was compared with that of the bleomycin group; “**” represents that P value is less than 0.01 when the lung weight index of administration group was compared with that of bleomycin group.
Pulmonary fibrosis models were made according to the method described in Example 2 and administered in groups according to Table 9. After 28 days, the lungs of the mice were finely stripped and weighed, and the lung weight (mg) was divided by the body weight (g) of the mice to obtain a lung weight index. […] In FIG. 13, “##” represents that P value is less than 0.01 when the lung weight index of the administration groups were compared with that of the sham operation group; “*” represents that P value is less than 0.05 and “**” represents that P value is less than 0.01 when the lung weight index of the administration groups were compared with bleomycin group.

[3] = test system: mice with bleomycin-induced pulmonary fibrosis; test: Hydroxyproline content in lung of mice with pulmonary fibrosis; details: 2 mg/kg i.p.; for hydroxyproline content (μg/mg protein): left lung lobes, chloramine-T method
Method: as §1
(§2) Hydroxyproline accounts for 13.4% (w/w) of collagen, and extremely small amount of elastin, while it is absent in other proteins. […] Pulmonary fibrosis models were prepared according to the method described in Example 2 and administered in groups according to Table 3. The content of hydroxyproline in the lobes of left lung of the animals was measured 28 days later, and the condition of pulmonary fibrosis was evaluated.
The specific method is as follows: the mice in the animal model prepared in Example 2 was feed in a SPF animal room and treated with polypeptide according to the dosing schedule of Table 3, and all left lobes of lung of the experimental animal was taken on the 21st day after the animal model was constructed and the wet weight was recorded. Then 10% (w/w) tissue homogenate was prepared by ultrasonic homogenization using physiological saline. About 150 μL of homogenate supernatant was taken, and 500 μL of alkali hydrolysate was added (provided by Hydroxyproline alkaline hydrolysis kit of Nanjing Jiancheng Bioengineering Technology Co., Ltd.). After vortex mixing, the mixture was treated with alkaline hydrolysis for 40 min under conditions of 120° C., 0.1 Kpa. After adjusting the pH value, the volume was held constant, and the supernatant was taken after performing activated carbon treatment. The hydroxyproline was determined according to the chloramine-T method (the method of the present example refers to the instruction provided with kit, which was purchased from Nanjing Jiancheng Bioengineering Technology Co., Ltd.). […] In FIG. 10, “##” represents that P value is less than 0.01 when comparing the content of hydroxyproline in the administration group with that in the sham operation group; and “*” represents that P value is less than 0.05 and“**” represents that P value is less than 0.01 when comparing the content of hydroxyproline in the administration group with that in bleomycin group.
as §2, with “collagen, and accounts for extremely small” for “collagen, and extremely small”, “in the all lobes of” for “in the lobes of”
The specific method is as follows: the mice in the animal model prepared in Example 2 was feed in an SPF animal room and treated with polypeptide according to the dosing schedule of Table 3, and all the left lobes of lung of the experimental animal was taken on the 21st day after the animal model was constructed and the wet weight was recorded. Then 10% (w/w) tissue homogenate was prepared by ultrasonic homogenization using physiological saline. About 150 μL of homogenate supernatant was taken, and 500 μL of alkali hydrolysate was added (provided by Hydroxyproline alkaline hydrolysis kit of Nanjing Jiancheng Bioengineering Technology Co., Ltd.). After vortex mixing, the mixture was treated with alkaline hydrolysis for 40 min under conditions of 120° C., 0.1 Kpa. […]

[4] = Table 9 groups (S19-S21): 2 mg/kg i.p.
[5] = Table 3 groups: 2 mg/kg i.p., 10th to 28th day after modeling

**Q.** How did the “Survival rate (%) 7 days” value ([1]; Table 9 groups (S19-S21): 2 mg/kg i.p., 10th to 28th day after modeling) turn out when “S19: chimeric polypeptide Pep2-MR2, amino acid sequence SEQ ID NO: 19 (HLYVSPWGGHLMACFTCAKKLKKR; chimeric polypeptide Pep2-MR2 S19)” was run?
**A.** 100%

**Q.** And the “Survival rate (%) 14 days” value [1, 4]?
**A.** 100%

**Q.** What about the “Survival rate (%) 21 days” value [1, 4] of the same compound?
**A.** 90%

**Q.** And the “Survival rate (%) 28 days” value [1, 4]?
**A.** 90%

**Q.** And the Lung weight index ([2]; Table 9 groups)?
**A.** 8.675

**Q.** And the “hydroxyproline content (μg/mg protein)” value ([3]; S19-S21 groups)?
**A.** 0.5637 μg/mg protein

**Q.** And the “content of hydroxyproline in the lungs (in words)” value ([3]; S19-S21 groups, versus bleomycin group)?
**A.** reduce hydroxyproline content

**Q.** With `CSCC[C@@H]1NC(=O)[C@H](CC(C)C)NC(=O)[C@@](C)(N)CCCC=CCCC[C@@](C)(C(=O)N[C@@H](Cc2ccccc2)C(=O)N[C@H](C(=O)N[C@@H](CS)C(=O)N[C@@H](C)C(=O)N[C@@H](CCCCN)C(=O)N[C@@H](CCCCN)C(=O)N[C@@H](CC(C)C)C(=O)N[C@@H](CCCCN)C(=O)N[C@@H](CCCCN)C(=O)N[C@@H](CCCNC(=N)N)C(=O)O)[C@@H](C)O)NC(=O)[C@H](C)NC1=O` [S1, S5-Leu-Met-Ala-S5-Phe-Thr-Cys-Ala-Lys-Lys-Leu-Lys-Lys-Arg] (H-[S5]LMA[S5]FTCAKKLKKR-OH; staple 1-5; N-terminus and C-terminus assumed) as the compound, how does the “Survival rate (%) 7 days” value [1, 5] read?
**A.** 100%

**Q.** What about the “Survival rate (%) 14 days” value [1, 5] of the same compound?
**A.** 86.67%

**Q.** And the “Survival rate (%) 21 days” value [1, 5]?
**A.** 80%

**Q.** What about the “Survival rate (%) 28 days” value [1, 5] of the same compound?
**A.** 80%

**Q.** And the Lung weight index ([2]; Table 3 groups)?
**A.** 8.675

**Q.** What about the “hydroxyproline content (μg/mg protein)” value ([3]; Table 3 groups) of the same compound?
**A.** 0.7087 μg/mg protein

**Q.** With `CSCC[C@H](NC(=O)[C@H](CC(C)C)NC(=O)[C@@H](N)Cc1c[nH]cn1)C(=O)N[C@@H](C)C(=O)N[C@@H](CS)C(=O)N[C@@H](Cc1ccccc1)C(=O)N[C@H](C(=O)N[C@@H](CS)C(=O)N[C@@H](C)C(=O)N[C@@H](CCCCN)C(=O)N[C@@H](CCCCN)C(=O)N[C@@H](CC(C)C)C(=O)N[C@@H](CCCCN)C(=O)N[C@@H](CCCCN)C(=O)N[C@@H](CCCNC(=N)N)C(=O)O)[C@@H](C)O` [MR2] (H-HLMACFTCAKKLKKR-OH; N-terminus and C-terminus assumed) as the compound, how does the “Survival rate (%) 7 days” value [1, 5] read?
**A.** 100%

**Q.** What about the “Survival rate (%) 14 days” value [1, 5] of the same compound?
**A.** 93.33%

**Q.** And the “Survival rate (%) 21 days” value [1, 5]?
**A.** 73.33%

**Q.** What about the “Survival rate (%) 28 days” value [1, 5] of the same compound?
**A.** 66.67%

**Q.** And the Lung weight index ([2]; Table 3 groups)?
**A.** 11.4625

**Q.** What about the “hydroxyproline content (μg/mg protein)” value ([3]; Table 3 groups) of the same compound?
**A.** 0.9087 μg/mg protein

**Q.** How did the “Survival rate (%) 7 days” value [1, 5] turn out when `CSCC[C@H](NC(=O)[C@H](CC(C)C)NC(=O)[C@@H](N)Cc1c[nH]cn1)C(=O)N[C@@H](C)C(=O)N[C@@H](CS)C(=O)N[C@@H](Cc1ccccc1)C(=O)N[C@H](C(=O)N[C@@H](CS)C(=O)N[C@@]1(C)CCCC=CCCC[C@@](C)(C(=O)N[C@@H](CCCCN)C(=O)N[C@@H](CCCNC(=N)N)C(=O)O)NC(=O)[C@H](CC(C)C)NC(=O)[C@H](CCCCN)NC(=O)[C@H](CCCCN)NC1=O)[C@@H](C)O` [S9, His-Leu-Met-Ala-Cys-Phe-Thr-Cys-S5-Lys-Lys-Leu-S5-Lys-Arg] (H-HLMACFTC[S5]KKL[S5]KR-OH; staple 9-13; N-terminus and C-terminus assumed) was run?
**A.** 100%

**Q.** And the “Survival rate (%) 14 days” value [1, 5]?
**A.** 93.33%

**Q.** What about the “Survival rate (%) 21 days” value [1, 5] of the same compound?
**A.** 93.33%

**Q.** What about the “Survival rate (%) 28 days” value [1, 5] of the same compound?
**A.** 93.33%

**Q.** And the Lung weight index ([2]; Table 3 groups)?
**A.** 7.4125

**Q.** What about the “hydroxyproline content (μg/mg protein)” value ([3]; Table 3 groups) of the same compound?
**A.** 0.7212 μg/mg protein

**Q.** With `CSCC[C@H](NC(=O)[C@H](CC(C)C)NC(=O)[C@@H](N)Cc1c[nH]cn1)C(=O)N[C@@H](C)C(=O)N[C@@H](CS)C(=O)N[C@@H](Cc1ccccc1)C(=O)N[C@H](C(=O)N[C@@]1(C)CCCC=CCCC[C@@](C)(C(=O)N[C@@H](CCCCN)C(=O)N[C@@H](CCCCN)C(=O)N[C@@H](CCCNC(=N)N)C(=O)O)NC(=O)[C@H](CCCCN)NC(=O)[C@H](CCCCN)NC(=O)[C@H](C)NC1=O)[C@@H](C)O` [S8, His-Leu-Met-Ala-Cys-Phe-Thr-S5-Ala-Lys-Lys-S5-Lys-Lys-Arg] (H-HLMACFT[S5]AKK[S5]KKR-OH; staple 8-12; N-terminus and C-terminus assumed) as the compound, how does the “Survival rate (%) 7 days” value [1, 5] read?
**A.** 100%

**Q.** And the “Survival rate (%) 14 days” value [1, 5]?
**A.** 100%

**Q.** What about the “Survival rate (%) 21 days” value [1, 5] of the same compound?
**A.** 93.33%

**Q.** What about the “Survival rate (%) 28 days” value [1, 5] of the same compound?
**A.** 86.67%

**Q.** What about the Lung weight index ([2]; Table 3 groups) of the same compound?
**A.** 8.775

**Q.** And the “hydroxyproline content (μg/mg protein)” value ([3]; Table 3 groups)?
**A.** 0.825 μg/mg protein

**Q.** For `CSCC[C@H](NC(=O)[C@H](CC(C)C)NC(=O)[C@@H](N)Cc1c[nH]cn1)C(=O)N[C@@H](C)C(=O)N[C@@H](CS)C(=O)N[C@@H](Cc1ccccc1)C(=O)N[C@H](C(=O)N[C@@H](CS)C(=O)N[C@@H](C)C(=O)N[C@@]1(C)CCCC=CCCC[C@@](C)(C(=O)N[C@@H](CCCNC(=N)N)C(=O)O)NC(=O)[C@H](CCCCN)NC(=O)[C@H](CC(C)C)NC(=O)[C@H](CCCCN)NC1=O)[C@@H](C)O` [S10, His-Leu-Met-Ala-Cys-Phe-Thr-Cys-Ala-S5-Lys-Leu-Lys-S5-Arg] (H-HLMACFTCA[S5]KLK[S5]R-OH; staple 10-14; N-terminus and C-terminus assumed), which “Survival rate (%) 7 days” value [1, 5] is on record?
**A.** 100%

**Q.** And the “Survival rate (%) 14 days” value [1, 5]?
**A.** 93.33%

**Q.** And the “Survival rate (%) 21 days” value [1, 5]?
**A.** 80%

**Q.** What about the “Survival rate (%) 28 days” value [1, 5] of the same compound?
**A.** 80%

**Q.** What about the Lung weight index ([2]; Table 3 groups) of the same compound?
**A.** 8.8875

**Q.** And the “hydroxyproline content (μg/mg protein)” value ([3]; Table 3 groups)?
**A.** 0.8163 μg/mg protein
